Reference: ChEMBL document CHEMBL2074180, “Human P-glycoprotein transports cyclosporin A and FK506” (J Biol Chem, 1993)

Molecular target: ATP-dependent translocase ABCB1 (Homo sapiens, UniProt P08183)
Assay: TP_TRANSPORTER: transepithelial transport of tacrolimus (basal to apical) (Tacrolimus: 6.2 uM) in MDR1-expressing LLC-PK1 cells
Assay type: functional, cell-based
Settings: pig, llc-pk1, 6.2 µM

Chain of ATP-dependent translocase ABCB1 (P08183 whole entry): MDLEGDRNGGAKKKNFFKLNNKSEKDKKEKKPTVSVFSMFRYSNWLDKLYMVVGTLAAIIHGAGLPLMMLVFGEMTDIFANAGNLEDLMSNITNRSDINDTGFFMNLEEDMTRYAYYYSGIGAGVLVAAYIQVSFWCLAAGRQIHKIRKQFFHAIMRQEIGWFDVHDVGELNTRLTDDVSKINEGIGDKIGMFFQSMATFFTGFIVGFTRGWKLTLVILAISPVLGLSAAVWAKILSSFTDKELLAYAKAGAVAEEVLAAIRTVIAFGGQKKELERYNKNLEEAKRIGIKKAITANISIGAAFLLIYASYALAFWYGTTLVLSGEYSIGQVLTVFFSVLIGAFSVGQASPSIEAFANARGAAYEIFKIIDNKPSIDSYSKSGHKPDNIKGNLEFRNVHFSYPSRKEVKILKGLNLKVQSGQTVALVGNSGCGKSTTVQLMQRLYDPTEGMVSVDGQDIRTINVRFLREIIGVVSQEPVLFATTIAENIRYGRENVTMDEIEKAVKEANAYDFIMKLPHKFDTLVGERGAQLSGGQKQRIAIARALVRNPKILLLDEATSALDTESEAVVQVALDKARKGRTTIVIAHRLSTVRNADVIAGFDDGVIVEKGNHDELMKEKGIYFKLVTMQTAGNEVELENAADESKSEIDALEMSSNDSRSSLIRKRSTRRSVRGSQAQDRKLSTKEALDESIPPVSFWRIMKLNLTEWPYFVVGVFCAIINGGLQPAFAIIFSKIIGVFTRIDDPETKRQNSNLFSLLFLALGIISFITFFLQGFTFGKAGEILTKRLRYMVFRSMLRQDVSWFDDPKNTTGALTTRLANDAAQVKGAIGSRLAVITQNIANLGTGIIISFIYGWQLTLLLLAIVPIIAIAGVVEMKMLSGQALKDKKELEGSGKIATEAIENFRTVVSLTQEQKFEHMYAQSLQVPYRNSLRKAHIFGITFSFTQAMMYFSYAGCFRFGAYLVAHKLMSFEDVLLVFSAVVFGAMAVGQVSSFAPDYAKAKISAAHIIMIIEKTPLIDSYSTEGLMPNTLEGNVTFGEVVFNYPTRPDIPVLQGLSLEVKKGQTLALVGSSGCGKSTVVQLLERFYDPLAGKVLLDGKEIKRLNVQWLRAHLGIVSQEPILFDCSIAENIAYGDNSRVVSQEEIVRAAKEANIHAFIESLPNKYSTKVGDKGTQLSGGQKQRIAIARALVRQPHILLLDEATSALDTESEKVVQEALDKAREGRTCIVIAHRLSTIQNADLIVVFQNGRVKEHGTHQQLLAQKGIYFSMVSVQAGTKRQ

C=CC[C@@H]1/C=C(\C)C[C@H](C)C[C@H](OC)[C@H]2O[C@@](O)(C(=O)C(=O)N3CCCC[C@H]3C(=O)O[C@H](/C(C)=C/[C@@H]3CC[C@@H](O)[C@H](OC)C3)[C@H](C)[C@@H](O)CC1=O)[C@H](C)C[C@@H]2OC [TACROLIMUS ANHYDROUS]
Activity: inhibitor [+]
